Assay results reported in patent publication US9394297B2, “Amides as pim inhibitors” (AMGEN INC., priority 2012, dated 2016).
Like-named read-outs stand apart in the source and are kept apart here.

Legend:
[1] = target: Pim-1 (Homo sapiens (Human), UniProt P11309); assay: Pim-Mn enzyme assay (HTRF, 384-well), Pim-1; assay type: biochemical; settings: Pim-1 enzyme 5 pM, ATP 1.5 μM, BAD (S112) 0.5 μM, HTRF, 22-point curve; read-out: Pim-1-Mn IC50 IP
[2] = target: Pim-2 (Homo sapiens (Human), UniProt Q9P1W9); assay: Pim-Mn enzyme assay (HTRF, 384-well), Pim-2; assay type: biochemical; settings: Pim-2 enzyme 0.5 pM, ATP 1.5 μM, BAD (S112) 0.5 μM, HTRF, 22-point curve; read-out: Pim-2-Mn IC50 IP
Pim-2, sequence (Q9P1W9 whole entry): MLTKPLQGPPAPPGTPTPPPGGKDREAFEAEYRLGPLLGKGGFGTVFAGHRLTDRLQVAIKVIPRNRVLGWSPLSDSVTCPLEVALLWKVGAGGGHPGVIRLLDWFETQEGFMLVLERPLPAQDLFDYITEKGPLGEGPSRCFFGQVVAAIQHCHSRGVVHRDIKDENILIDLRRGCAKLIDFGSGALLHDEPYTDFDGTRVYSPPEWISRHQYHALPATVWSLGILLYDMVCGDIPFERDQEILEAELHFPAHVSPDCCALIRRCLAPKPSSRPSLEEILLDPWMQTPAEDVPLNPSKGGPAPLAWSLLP

[3] = test system: KMS-12-BM cell lines; assay: KMS12 #2 flow cytometry assay (phospho-BAD Ser112); assay type: cell-based; settings: Homo sapiens, KMS-12-BM, 110 min, read-out: KMS-12-Flow IC50 IP
[4] = test system: KMS-12-BM myeloma cell line; assay: Pim KMS-12 cell assay (phospho-BAD S112 / total BAD, MSD); settings: Homo sapiens, KMS-12-BM
[5] = read-out: KMS-12-BM IC50 IP, KMS-12-BM cells, phospho-BAD (S112) vs total BAD, 1 hour 50 min with compound

Pim-1, sequence (P11309 whole entry): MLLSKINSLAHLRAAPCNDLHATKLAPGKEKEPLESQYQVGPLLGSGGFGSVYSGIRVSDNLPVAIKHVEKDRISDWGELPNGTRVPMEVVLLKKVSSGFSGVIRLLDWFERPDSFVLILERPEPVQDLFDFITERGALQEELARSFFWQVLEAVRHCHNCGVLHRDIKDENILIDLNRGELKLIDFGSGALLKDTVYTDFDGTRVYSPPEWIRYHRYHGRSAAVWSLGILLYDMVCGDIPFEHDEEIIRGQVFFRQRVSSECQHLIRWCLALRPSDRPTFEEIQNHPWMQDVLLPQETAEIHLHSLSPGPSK

IC50 [1] | IC50 [2] | IC50 [4, 5] | SMILES | IC50 [3] | IC50 ([4]; read-out: KMS-12-BM IC50 IP)
0.2 nM | 0.3 nM | 49.7 nM | CC1(Nc2cnc3cccc(-c4cc5c([nH]4)CCNC5=O)c3n2)CC1 [Example 211, 2-(3-((1-methylcyclopropyl)amino)quinoxalin-5-yl)-6,7-dihydro-1H-pyrrolo[3,2-c]pyridin-4(5H)-one] | – | –
1.8 nM | 5 nM | 1220 nM | COc1nc2cccc(-c3cc4c([nH]3)CCNC4=O)c2nc1NC(C)(C)C [Example 276, 2-(3-(tert-butylamino)-2-methoxy-5-quinoxalinyl)-1,5,6,7-tetrahydro-4H-pyrrolo[3,2-c]pyridin-4-one] | – | –
1.22 nM | 1.29 nM | 252 nM | Cc1nc2cccc(-c3cc4c(=O)[nH]cnc4[nH]3)c2nc1NC(C)(C)C [Example 261, 6-(3-(tert-butylamino)-2-methylquinoxalin-5-yl)-3H-pyrrolo[2,3-d]pyrimidin-4(7H)-one] | – | –
0.2 nM | 0.3 nM | 60.1 nM | CC(C)(C)Nc1cnc2cccc(-c3cc4c([nH]3)CCNC4=O)c2n1 [Example 210, 2-(3-(tert-butylamino)quinoxalin-5-yl)-6,7-dihydro-1H-pyrrolo[3,2-c]pyridin-4(5H)-one] | – | –
7.8 nM | 4.1 nM | 346 nM | CNc1nc2c(-c3cc4c([nH]3)CCNC4=O)cccc2nc1C [Example 219, 2-(2-methyl-3-(methylamino)quinoxalin-5-yl)-6,7-dihydro-1H-pyrrolo[3,2-c]pyridin-4(5H)-one] | – | –
4.3 nM | 5.4 nM | 513 nM | COCC(C)(C)Nc1nc2c(-c3cc4c([nH]3)CCNC4=O)cccc2nc1C [Example 63, 2-(3-((2-methoxy-1,1-dimethylethyl)amino)-2-methyl-5-quinoxalinyl)-1,5,6,7-tetrahydro-4H-pyrrolo[3,2-c]pyridin-4-one] | – | –
1.3 nM | 1.4 nM | 181 nM | CC(C)(C)Nc1cnc2cccc(-c3cc4n(c3)CCNC4=O)c2n1 [Example 173, 7-(3-(tert-butylamino)quinoxalin-5-yl)-3,4-dihydropyrrolo[1,2-a]pyrazin-1(2H)-one] | – | –

SMILES | IC50 [1] | IC50 [2] | IC50 [4, 5] | IC50 [3] | IC50 ([4]; read-out: KMS-12-BM IC50 IP)
Cc1nc2ccc(F)c(-c3cc4c([nH]3)CCNC4=O)c2nc1NC(C)(C)C [Example 286, 2-(3-(tert-butylamino)-6-fluoro-2-methylquinoxalin-5-yl)-6,7-dihydro-1H-pyrrolo[3,2-c]pyridin-4(5H)-one] | 0.289 nM | 0.305 nM | – | 28.2 nM | 143 nM
